Experimental data from patent US8933233B2, “1,3,4-oxadiazole and 1,3,4-thiadiazole β-lactamase inhibitors” (priority 2012, dated 2015).
Where a name gives a salt, the structure may show the parent alone.

Legend:
[1] = system: bacterial strains that express the class D cephalosporinase OXA-15; assay: Synergy MIC / standard BLI potentiation MIC assay, strains expressing OXA-15; type: cell-based, E. coli; settings: in presence of a β-lactam; comparator Avibactam (CCC)
How it was run: (§1)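 Broth microdilution in CAMHB per CLSI M07-A9, ~10^5 CFU/mL inoculum, 18–20 h at 37 °C with aeration; engineered E. coli kept with 25 μg/mL tetracycline. β-lactam 2-fold from 128 to 0.13 μg/mL with BLI fixed at 4 μg/mL, or BLI serially diluted with β-lactam fixed; MIC is lowest concentration without visible turbidity.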

[2] = system: bacterial strains that express KPC β-lactamases; assay: Synergy MIC / standard BLI potentiation MIC assay, strains expressing KPC β-lactamases; type: cell-based, isogenic E. coli and clinical isolates; settings: more active for at least one KPC strain and/or better spectrum; comparator Avibactam
How it was run: as §1

## CC(C)(N)Cc1nnc([C@@H]2CC[C@@H]3CN2C(=O)N3OS(=O)(=O)O)o1 [Compound 737, (2S,5R)-2-(5-(2-amino-2-methylpropyl)-1,3,4-oxadiazol-2-yl)-7-oxo-1,6-diazabicyclo[3.2.1]octan-6-yl hydrogen sulfate]
[1]
  activity against bacterial strains that express OXA-15, compared with Avibactam: more active than Avibactam
[2]
  activity and/or spectrum of activity against bacterial strains that express KPC β-lactamases, compared with Avibactam: more active than Avibactam

## NC1CCN(Cc2nnc([C@@H]3CC[C@@H]4CN3C(=O)N4OS(=O)(=O)O)o2)CC1 [Compound 774, (2S,5R)-2-(5-((4-aminopiperidin-1-yl)methyl)-1,3,4-oxadiazol-2-yl)-7-oxo-1,6-diazabicyclo[3.2.1]octan-6-yl hydrogen sulfate]
[1]
  activity against bacterial strains that express OXA-15, compared with Avibactam: more active than Avibactam
[2]
  activity and/or spectrum of activity against bacterial strains that express KPC β-lactamases, compared with Avibactam: more active than Avibactam

## N[C@H]1C[C@@H](Cc2nnc([C@@H]3CC[C@@H]4CN3C(=O)N4OS(=O)(=O)O)o2)C1 [Compound 728, (2S,5R)-2-(5-(((1s,3R)-3-aminocyclobutyl)methyl)-1,3,4-oxadiazol-2-yl)-7-oxo-1,6-diazabicyclo[3.2.1]octan-6-yl hydrogen sulfate]
[1]
  activity against bacterial strains that express OXA-15, compared with Avibactam: more active than Avibactam
[2]
  activity and/or spectrum of activity against bacterial strains that express KPC β-lactamases, compared with Avibactam: more active than Avibactam

## N=C(N)N[C@H]1C[C@@H](c2nnc([C@@H]3CC[C@@H]4CN3C(=O)N4OS(=O)(=O)O)o2)C1 [Compound 749, 2S,5R)-2-(5-((1s,3R)-3-guanidinocyclobutyl)-1,3,4-oxadiazol-2-yl)-7-oxo-1,6-diazabicyclo[3.2.1]octan-6-yl hydrogen sulfate]
[1]
  activity against bacterial strains that express OXA-15, compared with Avibactam: more active than Avibactam
[2]
  activity and/or spectrum of activity against bacterial strains that express KPC β-lactamases, compared with Avibactam: more active than Avibactam

## N[C@@H]1CN[C@@H](c2nnc([C@@H]3CC[C@@H]4CN3C(=O)N4OS(=O)(=O)O)o2)C1 [Compound 763, (2S,5R)-2-(5-((2R,4S)-4-aminopyrrolidin-2-yl)-1,3,4-oxadiazol-2-yl)-7-oxo-1,6-diazabicyclo[3.2.1]octan-6-yl hydrogen sulfate]
[1]
  activity against bacterial strains that express OXA-15, compared with Avibactam: more active than Avibactam
[2]
  activity and/or spectrum of activity against bacterial strains that express KPC β-lactamases, compared with Avibactam: more active than Avibactam

## NCCc1nnc([C@@H]2CC[C@@H]3CN2C(=O)N3OS(=O)(=O)O)o1 [Compound 703, (2S,5R)-2-(5-(2-aminoethyl)-1,3,4-oxadiazol-2-yl)-7-oxo-1,6-diazabicyclo[3.2.1]octan-6-yl hydrogen sulfate]
[1]
  activity against bacterial strains that express OXA-15, compared with Avibactam: more active than Avibactam
[2]
  activity and/or spectrum of activity against bacterial strains that express KPC β-lactamases, compared with Avibactam: more active than Avibactam

## O=C1N2C[C@@H](CC[C@H]2c2nnc([C@@H]3CCNC3)o2)N1OS(=O)(=O)O [Compound 759, (2S,5R)-7-oxo-2-(5-((R)-pyrrolidin-3-yl)-1,3,4-oxadiazol-2-yl)-1,6-diazabicyclo[3.2.1]octan-6-yl hydrogen sulfate]
[1]
  activity against bacterial strains that express OXA-15, compared with Avibactam: more active than Avibactam
[2]
  activity and/or spectrum of activity against bacterial strains that express KPC β-lactamases, compared with Avibactam: more active than Avibactam

## N[C@H]1C[C@H](c2nnc([C@@H]3CC[C@@H]4CN3C(=O)N4OS(=O)(=O)O)o2)C1 [Compound 727, (2S,5R)-2-(5-((1r,3S)-3-aminocyclobutyl)-1,3,4-oxadiazol-2-yl)-7-oxo-1,6-diazabicyclo[3.2.1]octan-6-yl hydrogen sulfate]
[1]
  activity against bacterial strains that express OXA-15, compared with Avibactam: more active than Avibactam
[2]
  activity and/or spectrum of activity against bacterial strains that express KPC β-lactamases, compared with Avibactam: more active than Avibactam

## N=C(N)NCC(O)Cc1nnc([C@@H]2CC[C@@H]3CN2C(=O)N3OS(=O)(=O)O)o1 (stereo partly drawn) [Compound 730, (2S,5R)-2-(5-(3-guanidino-2-hydroxypropyl)-1,3,4-oxadiazol-2-yl)-7-oxo-1,6-diazabicyclo[3.2.1]octan-6-yl hydrogen sulfate]
[1]
  activity against bacterial strains that express OXA-15, compared with Avibactam: more active than Avibactam
[2]
  activity and/or spectrum of activity against bacterial strains that express KPC β-lactamases, compared with Avibactam: more active than Avibactam

## N[C@@H]1CC[C@H](c2nnc([C@@H]3CC[C@@H]4CN3C(=O)N4OS(=O)(=O)O)o2)C1 [Compound 729, (2S,5R)-2-(5-((1S,3R)-3-aminocyclopentyl)-1,3,4-oxadiazol-2-yl)-7-oxo-1,6-diazabicyclo[3.2.1]octan-6-yl hydrogen sulfate]
[1]
  activity against bacterial strains that express OXA-15, compared with Avibactam: more active than Avibactam
[2]
  activity and/or spectrum of activity against bacterial strains that express KPC β-lactamases, compared with Avibactam: more active than Avibactam

## N=C(N)NCc1nnc([C@@H]2CC[C@@H]3CN2C(=O)N3OS(=O)(=O)O)s1 [Compound 721, (2S,5R)-2-(5-(guanidinomethyl)-1,3,4-thiadiazol-2-yl)-7-oxo-1,6-diazabicyclo[3.2.1]octan-6-yl hydrogen sulfate]
[1]
  activity against bacterial strains that express OXA-15, compared with Avibactam: more active than Avibactam
[2]
  activity and/or spectrum of activity against bacterial strains that express KPC β-lactamases, compared with Avibactam: more active than Avibactam

## CNCCCc1nnc([C@@H]2CC[C@@H]3CN2C(=O)N3OS(=O)(=O)O)o1 [Compound 734, 2S,5R)-2-(5-(3-(methylamino)propyl)-1,3,4-oxadiazol-2-yl)-7-oxo-1,6-diazabicyclo[3.2.1]octan-6-yl hydrogen sulfate]
[1]
  activity against bacterial strains that express OXA-15, compared with Avibactam: more active than Avibactam
[2]
  activity and/or spectrum of activity against bacterial strains that express KPC β-lactamases, compared with Avibactam: more active than Avibactam
